Test results from patent US10556907B2 (AbbVie Inc., priority 2015, dated 2020).
Counter-ions that a name gives are not always drawn.

Columns and labels:
Assay in all cases: Method 1: intracellular Ca2+ release (FLIPR, Calcium 5) in recombinant CHO-K1 cells
Type in all cases: cell-based
human S1PR4 receptor = target: T1, human S1PR4 receptor (Homo sapiens, UniProt O95977); settings: (1): determined with method 1; read-out: S1P4 EC50
T1 construct: host or cells: CHO-K1
T1 sequence (O95977 1-384): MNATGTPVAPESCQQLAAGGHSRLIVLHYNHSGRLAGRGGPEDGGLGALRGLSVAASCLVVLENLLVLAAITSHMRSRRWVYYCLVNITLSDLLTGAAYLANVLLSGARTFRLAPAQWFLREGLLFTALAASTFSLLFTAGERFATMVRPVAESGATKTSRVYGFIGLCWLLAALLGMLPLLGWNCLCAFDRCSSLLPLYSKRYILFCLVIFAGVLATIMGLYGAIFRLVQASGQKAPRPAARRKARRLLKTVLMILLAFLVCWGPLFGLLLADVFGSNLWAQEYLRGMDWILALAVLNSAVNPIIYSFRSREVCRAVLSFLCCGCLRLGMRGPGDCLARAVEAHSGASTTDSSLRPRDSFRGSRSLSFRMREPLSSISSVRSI
How it was run: (§1)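 For antagonist mode, compounds were pre-incubated 10 min before phospho-fingolimod at EC80; in agonist mode, compounds were added directly to Calcium 5-loaded CHO-K1 cells co-expressing Gq/i5. Fluorescence was measured on FLIPR, and EC50 was fitted relative to the phospho-fingolimod curve.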

human S1PR1 receptor = target: T2, human S1PR1 receptor (Homo sapiens, UniProt P21453); settings: (1): determined with method 1; read-out: S1P1 EC50
T2 construct: host or cells: CHO-K1
How it was run: as §1

human S1PR5 receptor = target: T3, human S1PR5 receptor (Homo sapiens, UniProt Q9H228); settings: agonist potency, determined with method 1 (symbols A-D); read-out: S1P5 EC50 range
T3 construct: host or cells: CHO-K1
How it was run: as §1

human S1PR3 receptor = target: T4, human S1PR3 receptor (Homo sapiens, UniProt Q99500); settings: (1): determined with method 1; read-out: S1P3 EC50
T4 construct: host or cells: CHO-K1
How it was run: as §1

T2 sequence (P21453 whole entry): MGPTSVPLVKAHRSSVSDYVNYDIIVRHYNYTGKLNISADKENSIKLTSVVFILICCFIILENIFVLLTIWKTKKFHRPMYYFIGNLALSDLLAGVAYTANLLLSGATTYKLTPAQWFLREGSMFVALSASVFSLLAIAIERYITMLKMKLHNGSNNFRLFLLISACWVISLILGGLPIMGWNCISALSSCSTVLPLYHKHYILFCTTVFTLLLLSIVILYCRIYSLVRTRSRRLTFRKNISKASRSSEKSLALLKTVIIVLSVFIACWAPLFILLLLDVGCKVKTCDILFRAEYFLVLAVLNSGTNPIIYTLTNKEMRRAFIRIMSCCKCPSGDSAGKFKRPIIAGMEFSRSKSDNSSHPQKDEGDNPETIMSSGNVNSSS
T4 sequence (Q99500 whole entry): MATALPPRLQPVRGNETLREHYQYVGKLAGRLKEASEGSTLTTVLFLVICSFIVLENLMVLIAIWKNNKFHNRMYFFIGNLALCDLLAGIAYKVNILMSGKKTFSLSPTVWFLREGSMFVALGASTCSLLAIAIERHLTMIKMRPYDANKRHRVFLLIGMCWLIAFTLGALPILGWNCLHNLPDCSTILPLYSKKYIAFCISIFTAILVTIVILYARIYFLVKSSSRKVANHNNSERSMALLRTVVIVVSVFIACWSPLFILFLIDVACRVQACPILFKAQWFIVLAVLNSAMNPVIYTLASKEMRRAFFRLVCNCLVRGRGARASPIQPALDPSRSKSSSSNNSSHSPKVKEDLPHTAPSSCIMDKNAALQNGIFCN
T3 sequence (Q9H228 whole entry): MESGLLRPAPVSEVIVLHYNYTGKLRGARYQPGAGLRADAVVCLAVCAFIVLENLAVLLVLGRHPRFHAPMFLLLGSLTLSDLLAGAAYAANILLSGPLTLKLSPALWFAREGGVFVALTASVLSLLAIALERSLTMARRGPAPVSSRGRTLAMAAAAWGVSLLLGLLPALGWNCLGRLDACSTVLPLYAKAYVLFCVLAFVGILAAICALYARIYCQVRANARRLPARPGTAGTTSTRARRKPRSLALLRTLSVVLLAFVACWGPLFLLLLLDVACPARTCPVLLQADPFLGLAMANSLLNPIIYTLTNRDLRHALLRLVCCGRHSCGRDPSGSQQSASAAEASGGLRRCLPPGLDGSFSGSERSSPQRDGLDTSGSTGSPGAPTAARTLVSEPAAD

Structure (SMILES): Cc1ccccc1C#Cc1ccc2c(n1)CCN(C1CC(C(=O)O)C1)C2 (centres unmarked) [Compound 121, 3-(2-(o-tolylethynyl)-7,8-dihydro-1,6-naphthyridin-6(5H)-yl)cyclobutanecarboxylic acid]
- EC50 (human S1PR4 receptor): > 1 µM
- EC50 (human S1PR1 receptor): > 1 µM
- EC50 (human S1PR5 receptor): 1 to 10 µM
- EC50 (human S1PR3 receptor): > 1 µM

Structure (SMILES): CC(CC(=O)O)CN1CCc2nc(-c3ccc(OCc4ccc(Cl)cc4)cc3)ncc2C1 (single isomer, unassigned; (+)) [Compound 212, (+)-4-(2-(4-((4-chlorobenzyl)oxy)phenyl)-7,8-dihydropyrido[4,3-d]pyrimidin-6(5H)-yl)-3-methylbutanoic acid]
- EC50 (human S1PR4 receptor): > 1 µM
- EC50 (human S1PR1 receptor): > 1 µM
- EC50 (human S1PR5 receptor): < 0.01 µM
- EC50 (human S1PR3 receptor): > 1 µM

Structure (SMILES): CC(CN1CCc2nc(-c3ccc(OCc4ccc(Cl)c(Cl)c4)cc3)ncc2C1)C(=O)O (centres unmarked) [Compound 14, 3-(2-(4-((3,4-dichlorobenzyl)oxy)phenyl)-7,8-dihydropyrido[4,3-d]pyrimidin-6(5H)-yl)-2-methylpropanoic acid]
- EC50 (human S1PR4 receptor): > 1 µM
- EC50 (human S1PR1 receptor): > 1 µM
- EC50 (human S1PR5 receptor): < 0.01 µM
- EC50 (human S1PR3 receptor): > 1 µM

Structure (SMILES): Cc1ccccc1C#Cc1ncc2c(n1)CCN(C1CC(C(=O)O)C1)C2 (centres unmarked) [Compound 55, 3-(2-(o-tolylethynyl)-7,8-dihydropyrido[4,3-d]pyrimidin-6(5H)-yl)cyclobutanecarboxylic acid]
- EC50 (human S1PR4 receptor): > 1 µM
- EC50 (human S1PR1 receptor): > 1 µM
- EC50 (human S1PR5 receptor): 1 to 10 µM
- EC50 (human S1PR3 receptor): > 1 µM

Structure (SMILES): O=C(O)C1CC(N2CCc3nc(C#Cc4ccc(F)cc4)ncc3C2)C1 (centres unmarked) [Compound 57, 3-(2-((4-fluorophenyl)ethynyl)-7,8-dihydropyrido[4,3-d]pyrimidin-6(5H)-yl)cyclobutanecarboxylic acid]
- EC50 (human S1PR4 receptor): > 1 µM
- EC50 (human S1PR1 receptor): > 1 µM
- EC50 (human S1PR5 receptor): 1 to 10 µM
- EC50 (human S1PR3 receptor): > 1 µM

Structure (SMILES): O=C(O)CCN1CCc2nc(-c3ccc(OCc4ccc(OC(F)(F)F)cc4)cc3)ncc2C1 [Compound 85, 3-(2-(4-((4-(trifluoromethoxy)benzyl)oxy)phenyl)-7,8-dihydropyrido[4,3-d]pyrimidin-6(5H)-yl)propanoic acid]
- EC50 (human S1PR4 receptor): > 1 µM
- EC50 (human S1PR1 receptor): > 1 µM
- EC50 (human S1PR5 receptor): < 0.01 µM
- EC50 (human S1PR3 receptor): > 1 µM

Structure (SMILES): Cc1cc(-c2ncc3c(n2)CCN(CC(C)CC(=O)O)C3)ccc1OCc1cccc(Cl)c1 (centres unmarked) [Compound 252, 4-(2-(4-((3-chlorobenzyl)oxy)-3-methylphenyl)-7,8-dihydropyrido[4,3-d]pyrimidin-6(5H)-yl)-3-methylbutanoic acid]
- EC50 (human S1PR4 receptor): > 1 µM
- EC50 (human S1PR1 receptor): > 1 µM
- EC50 (human S1PR5 receptor): < 0.01 µM
- EC50 (human S1PR3 receptor): > 1 µM

Structure (SMILES): C[C@@H](CC(=O)O)CN1CCc2nc(-c3ccc(OCc4ccc(Cl)cc4)cc3)ncc2C1=O [Compound 267, (S)-4-(2-(4-((4-chlorobenzyl)oxy)phenyl)-5-oxo-7,8-dihydropyrido[4,3-d]pyrimidin-6(5H)-yl)-3-methylbutanoic acid]
- EC50 (human S1PR4 receptor): > 1 µM
- EC50 (human S1PR1 receptor): > 1 µM
- EC50 (human S1PR5 receptor): 0.01 to 0.1 µM
- EC50 (human S1PR3 receptor): > 1 µM

Structure (SMILES): O=C(O)C1CC(N2CCc3nc(C#Cc4cc(F)cc(F)c4)ncc3C2)C1 (centres unmarked) [Compound 61, 3-(2-((3,5-difluorophenyl)ethynyl)-7,8-dihydropyrido[4,3-d]pyrimidin-6(5H)-yl)cyclobutanecarboxylic acid]
- EC50 (human S1PR4 receptor): > 1 µM
- EC50 (human S1PR1 receptor): > 1 µM
- EC50 (human S1PR5 receptor): 1 to 10 µM
- EC50 (human S1PR3 receptor): > 1 µM

Structure (SMILES): O=C(O)C1CC(N2CCc3nc(C#Cc4ccccc4Cl)ncc3C2)C1 (centres unmarked) [Compound 60, 3-(2-((2-chlorophenyl)ethynyl)-7,8-dihydropyrido[4,3-d]pyrimidin-6(5H)-yl)cyclobutanecarboxylic acid]
- EC50 (human S1PR4 receptor): > 1 µM
- EC50 (human S1PR1 receptor): > 1 µM
- EC50 (human S1PR5 receptor): 1 to 10 µM
- EC50 (human S1PR3 receptor): > 1 µM

Structure (SMILES): O=C(O)CCN1CCc2nc(-c3ccc(OCc4c(Cl)cccc4Cl)cc3)c(F)cc2C1 [Compound 192, 3-(2-(4-((2,6-dichlorobenzyl)oxy)phenyl)-3-fluoro-7,8-dihydro-1,6-naphthyridin-6(5H)-yl)propanoic acid]
- EC50 (human S1PR4 receptor): > 1 µM
- EC50 (human S1PR1 receptor): > 1 µM
- EC50 (human S1PR5 receptor): < 0.01 µM
- EC50 (human S1PR3 receptor): > 1 µM

Structure (SMILES): O=C(O)CCN1CCc2nc(-c3ccc(OCc4ccccc4C(F)F)cc3)ccc2C1 [Compound 165, 3-(2-(4-((2-difluoromethylbenzyl)oxy)phenyl)-7,8-dihydro-1,6-naphthyridin-6(5H)-yl)propanoic acid]
- EC50 (human S1PR4 receptor): > 1 µM
- EC50 (human S1PR1 receptor): > 1 µM
- EC50 (human S1PR5 receptor): < 0.01 µM
- EC50 (human S1PR3 receptor): > 1 µM

Structure (SMILES): CC(CC(=O)O)CN1CCc2nc(-c3ccc(OCc4ccccc4Cl)cc3)ncc2C1 (centres unmarked) [Compound 229, 4-[2-[4-[(2-chlorophenyl)methoxy]phenyl]-7,8-dihydro-5H-pyrido[4,3-d]pyrimidin-6-yl]-3-methyl-butanoic acid 2,2,2-trifluoroacetic acid salt]
- EC50 (human S1PR4 receptor): > 1 µM
- EC50 (human S1PR1 receptor): < 1 µM
- EC50 (human S1PR5 receptor): < 0.01 µM
- EC50 (human S1PR3 receptor): > 1 µM

Structure (SMILES): CC(CCC(=O)O)N1CCc2nc(-c3ccc(OCc4ccc(Cl)cc4)cc3)ncc2C1 (centres unmarked) [Compound 66, 4-(2-(4-((4-chlorobenzyl)oxy)phenyl)-7,8-dihydropyrido[4,3-d]pyrimidin-6(5H)-yl)pentanoic acid]
- EC50 (human S1PR4 receptor): > 1 µM
- EC50 (human S1PR1 receptor): > 1 µM
- EC50 (human S1PR5 receptor): < 0.01 µM
- EC50 (human S1PR3 receptor): > 1 µM

Structure (SMILES): CC(CC(=O)O)CN1CCc2nc(-c3ccc(OCc4ccccc4F)cc3)ncc2C1 (centres unmarked) [Compound 235, 4-[2-[4-[(2-fluorophenyl)methoxy]phenyl]-7,8-dihydro-5H-pyrido[4,3-d]pyrimidin-6-yl]-3-methyl-butanoic acid 2,2,2-trifluoroacetic acid salt]
- EC50 (human S1PR4 receptor): > 1 µM
- EC50 (human S1PR1 receptor): < 1 µM
- EC50 (human S1PR5 receptor): < 0.01 µM
- EC50 (human S1PR3 receptor): > 1 µM

Structure (SMILES): C[C@H](CC(=O)O)CN1CCc2nc(-c3ccc(CCc4ccc(Cl)cc4)cc3)ncc2C1 [Compound 237, (R)-4-(2-(4-(4-chlorophenethyl)phenyl)-7,8-dihydropyrido[4,3-d]pyrimidin-6(5H)-yl)-3-methylbutanoic acid]
- EC50 (human S1PR4 receptor): > 1 µM
- EC50 (human S1PR1 receptor): > 1 µM
- EC50 (human S1PR5 receptor): < 0.01 µM
- EC50 (human S1PR3 receptor): > 1 µM

Structure (SMILES): O=C(O)C1(CN2CCc3nc(-c4ccc(OCc5cccc(Cl)c5)cc4)ncc3C2)CC1 [Compound 1, 1-((2-(4-((3-chlorobenzyl)oxy)phenyl)-7,8-dihydropyrido[4,3-d]pyrimidin-6(5H)-yl)methyl)cyclopropanecarboxylic acid]
- EC50 (human S1PR4 receptor): > 1 µM
- EC50 (human S1PR1 receptor): > 1 µM
- EC50 (human S1PR5 receptor): 0.1 to 1 µM
- EC50 (human S1PR3 receptor): > 1 µM

Structure (SMILES): CCc1cccc(Cl)c1COc1ncc2c(n1)CCN(CCC(=O)O)C2 [Compound 96, 3-(2-((2-chloro-6-ethylbenzyl)oxy)-7,8-dihydropyrido[4,3-d]pyrimidin-6(5H)-yl)propanoic acid]
- EC50 (human S1PR4 receptor): > 1 µM
- EC50 (human S1PR1 receptor): > 1 µM
- EC50 (human S1PR5 receptor): 1 to 10 µM
- EC50 (human S1PR3 receptor): > 1 µM

Structure (SMILES): O=C(O)C1CC(N2CCc3nc(C#Cc4ccc(Cl)cc4)ncc3C2)C1 (centres unmarked) [Compound 54, 3-(2-((4-chlorophenyl)ethynyl)-7,8-dihydropyrido[4,3-d]pyrimidin-6(5H)-yl)cyclobutanecarboxylic acid]
- EC50 (human S1PR4 receptor): > 1 µM
- EC50 (human S1PR1 receptor): > 1 µM
- EC50 (human S1PR5 receptor): 1 to 10 µM
- EC50 (human S1PR3 receptor): > 1 µM

Structure (SMILES): CC(CN1CCc2nc(-c3ccc(OCc4cccc(F)c4)cc3)ncc2C1)C(=O)O (centres unmarked) [Compound 8, 3-(2-(4-((3-fluorobenzyl)oxy)phenyl)-7,8-dihydropyrido[4,3-d]pyrimidin-6(5H)-yl)-2-methylpropanoic acid]
- EC50 (human S1PR4 receptor): > 1 µM
- EC50 (human S1PR1 receptor): > 1 µM
- EC50 (human S1PR5 receptor): < 0.01 µM
- EC50 (human S1PR3 receptor): > 1 µM
